Laboratory results from US20110172223A1, “Substituted Aryl Sulfone Derivatives as Calcium Channel Blockers” (priority 2008, published 2011).

How the values were obtained:
[1] = target: T1, Human Cav2.2 channels (Homo sapiens, UniProt Q00975); test: Fluorescent assay for Cav2.2 channels using potassium depolarization to initiate channel opening (Assay Example 1); assay type: cell-based; conditions: Table 2
T1 construct: expressed in transfected cells
Source text: Fluorescent Assay for Cav2.2 Channels Using Potassium Depolarization to Initiate Channel Opening
(§1) Human Cav2.2 channels were stably expressed in KEK293 cells along with alpha2-delta and beta subunits of voltage-gated calcium channels. An inwardly rectifying potassium channel (Kir2.3) was also expressed in these cells to allow more precise control of the cell membrane potential by extracellular potassium concentration. At low bath potassium concentration, the membrane potential is relatively negative, and is depolarized as the bath potassium concentration is raised. In this way, the bath potassium concentration can be used to regulate the voltage-dependent conformations of the channels. […]
(§2) Calcium influx through Cav2.2 channels is determined using a calcium-sensitive fluorescent dye in combination with a fluorescent plate reader. Fluorescent changes were measured with either a VIPR (Aurora Instruments) or FLIPR (Molecular Devices) plate reader.
(§3) • 1. […] Read cell plate on VIPR instrument, Excitation=480 nm, Emission=535 nm • 9. With VIPR continuously reading, add 0.1 ml (96-well plate) or 0.03 ml (384-well plate) of Depolarization Buffer, which is 2× the final assay concentration, to the cell plate.

[2] = target: T2, N-type calcium channel (CaV2.2) (Homo sapiens, UniProt Q00975); test: N-type calcium channel antagonist activity in the aforementioned assays (Assay Examples 1-3: fluorescent, IonWorks HT, PatchXpress/manual patch clamp); assay type: cell-based; conditions: antagonizing the N-type calcium channel; which of Assay Examples 1-3 is not specified
T2 construct: expressed in transfected cells
Source text: as §1, §2, §3
Block of N-type calcium channels is evaluated utilizing the IonWorks HT 384 well automated patch clamp electrophysiology device. […]

T1 sequence (Q00975 whole entry): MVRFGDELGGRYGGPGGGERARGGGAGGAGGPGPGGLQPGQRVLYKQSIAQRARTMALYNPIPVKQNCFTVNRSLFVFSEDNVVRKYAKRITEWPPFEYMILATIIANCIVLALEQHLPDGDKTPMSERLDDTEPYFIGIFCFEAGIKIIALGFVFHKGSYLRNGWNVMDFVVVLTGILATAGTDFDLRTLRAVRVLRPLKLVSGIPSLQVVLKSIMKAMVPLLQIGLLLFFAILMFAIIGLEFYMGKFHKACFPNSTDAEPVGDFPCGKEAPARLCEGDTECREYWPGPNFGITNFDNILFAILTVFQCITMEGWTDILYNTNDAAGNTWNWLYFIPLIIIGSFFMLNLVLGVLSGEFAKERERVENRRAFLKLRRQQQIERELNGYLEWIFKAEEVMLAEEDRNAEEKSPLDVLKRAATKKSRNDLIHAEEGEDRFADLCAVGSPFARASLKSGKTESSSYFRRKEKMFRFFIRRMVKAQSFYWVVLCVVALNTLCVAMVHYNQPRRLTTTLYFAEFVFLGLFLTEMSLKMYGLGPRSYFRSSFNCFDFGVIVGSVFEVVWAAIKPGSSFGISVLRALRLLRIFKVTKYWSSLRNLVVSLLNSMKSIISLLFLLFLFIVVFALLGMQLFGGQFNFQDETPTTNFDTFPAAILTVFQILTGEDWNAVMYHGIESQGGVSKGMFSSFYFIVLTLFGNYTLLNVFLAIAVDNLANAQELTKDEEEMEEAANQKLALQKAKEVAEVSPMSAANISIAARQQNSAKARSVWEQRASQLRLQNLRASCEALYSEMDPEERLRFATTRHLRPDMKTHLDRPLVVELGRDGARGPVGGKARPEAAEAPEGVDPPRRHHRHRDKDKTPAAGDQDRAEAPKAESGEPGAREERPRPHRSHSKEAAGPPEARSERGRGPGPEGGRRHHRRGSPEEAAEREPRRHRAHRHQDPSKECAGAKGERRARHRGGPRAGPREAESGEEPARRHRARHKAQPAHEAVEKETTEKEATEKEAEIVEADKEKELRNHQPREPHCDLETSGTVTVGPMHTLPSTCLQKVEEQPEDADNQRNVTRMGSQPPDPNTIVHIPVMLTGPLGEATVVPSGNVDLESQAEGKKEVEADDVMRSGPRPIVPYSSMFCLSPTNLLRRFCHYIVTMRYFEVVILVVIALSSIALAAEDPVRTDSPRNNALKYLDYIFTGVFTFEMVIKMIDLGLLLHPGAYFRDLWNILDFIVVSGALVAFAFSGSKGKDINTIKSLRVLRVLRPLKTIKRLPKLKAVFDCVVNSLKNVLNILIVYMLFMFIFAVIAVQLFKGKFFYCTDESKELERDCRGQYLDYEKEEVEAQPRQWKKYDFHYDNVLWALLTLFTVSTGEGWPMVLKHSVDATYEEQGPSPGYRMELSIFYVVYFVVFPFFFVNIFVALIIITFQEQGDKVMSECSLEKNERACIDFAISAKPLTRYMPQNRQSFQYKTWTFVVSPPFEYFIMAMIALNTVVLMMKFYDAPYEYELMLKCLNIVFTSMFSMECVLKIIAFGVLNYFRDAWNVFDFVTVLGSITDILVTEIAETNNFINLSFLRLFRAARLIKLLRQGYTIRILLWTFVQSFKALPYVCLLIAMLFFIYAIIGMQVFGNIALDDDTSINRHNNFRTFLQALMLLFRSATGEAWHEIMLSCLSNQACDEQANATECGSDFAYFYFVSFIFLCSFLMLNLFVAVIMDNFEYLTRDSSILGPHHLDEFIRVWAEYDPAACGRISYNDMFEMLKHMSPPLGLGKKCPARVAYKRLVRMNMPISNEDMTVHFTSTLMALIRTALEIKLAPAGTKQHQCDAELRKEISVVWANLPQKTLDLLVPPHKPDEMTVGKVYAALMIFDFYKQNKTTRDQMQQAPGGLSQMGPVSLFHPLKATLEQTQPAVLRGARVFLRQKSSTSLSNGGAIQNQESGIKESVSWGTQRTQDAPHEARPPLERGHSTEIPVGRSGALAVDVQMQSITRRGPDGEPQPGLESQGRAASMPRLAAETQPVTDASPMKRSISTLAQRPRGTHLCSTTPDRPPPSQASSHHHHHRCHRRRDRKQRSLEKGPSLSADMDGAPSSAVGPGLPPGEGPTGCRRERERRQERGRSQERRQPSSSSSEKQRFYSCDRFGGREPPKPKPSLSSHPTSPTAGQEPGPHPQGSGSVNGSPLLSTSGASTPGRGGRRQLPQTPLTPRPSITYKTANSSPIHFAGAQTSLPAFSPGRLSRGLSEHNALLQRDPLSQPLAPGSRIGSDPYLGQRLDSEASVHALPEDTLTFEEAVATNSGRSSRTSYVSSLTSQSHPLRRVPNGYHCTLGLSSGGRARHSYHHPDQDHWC
T1 sequence (P54289 25-946 partner limits assumed): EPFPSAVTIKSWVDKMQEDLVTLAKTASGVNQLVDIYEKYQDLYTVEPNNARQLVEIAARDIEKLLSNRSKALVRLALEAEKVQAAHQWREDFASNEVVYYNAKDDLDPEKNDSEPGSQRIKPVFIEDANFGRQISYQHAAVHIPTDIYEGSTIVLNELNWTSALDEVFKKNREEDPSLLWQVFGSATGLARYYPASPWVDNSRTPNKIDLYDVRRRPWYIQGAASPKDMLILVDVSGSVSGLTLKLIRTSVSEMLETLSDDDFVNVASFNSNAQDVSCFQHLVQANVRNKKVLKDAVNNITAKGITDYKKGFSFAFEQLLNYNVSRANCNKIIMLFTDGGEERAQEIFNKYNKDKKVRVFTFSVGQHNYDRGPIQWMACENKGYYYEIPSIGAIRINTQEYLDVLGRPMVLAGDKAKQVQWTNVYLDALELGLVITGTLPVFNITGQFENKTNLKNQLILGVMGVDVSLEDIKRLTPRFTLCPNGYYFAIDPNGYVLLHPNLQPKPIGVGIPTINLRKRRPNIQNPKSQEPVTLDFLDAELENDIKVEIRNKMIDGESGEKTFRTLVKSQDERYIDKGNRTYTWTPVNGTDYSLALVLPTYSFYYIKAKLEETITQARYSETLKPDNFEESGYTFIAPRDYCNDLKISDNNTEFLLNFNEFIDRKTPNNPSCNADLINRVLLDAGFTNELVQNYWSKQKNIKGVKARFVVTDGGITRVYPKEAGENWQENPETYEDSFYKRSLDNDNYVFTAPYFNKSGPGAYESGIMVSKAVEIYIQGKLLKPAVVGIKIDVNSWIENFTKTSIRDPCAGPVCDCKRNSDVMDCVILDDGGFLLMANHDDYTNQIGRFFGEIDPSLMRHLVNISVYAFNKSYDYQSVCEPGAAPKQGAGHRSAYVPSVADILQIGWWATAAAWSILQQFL
T1 sequence (P54289 947-1103 partner limits assumed): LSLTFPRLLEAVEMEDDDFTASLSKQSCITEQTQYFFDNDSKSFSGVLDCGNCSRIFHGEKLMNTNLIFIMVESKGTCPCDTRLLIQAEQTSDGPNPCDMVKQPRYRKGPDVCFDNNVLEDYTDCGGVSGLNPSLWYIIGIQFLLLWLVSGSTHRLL
T1 sequence (P54284 whole entry partner): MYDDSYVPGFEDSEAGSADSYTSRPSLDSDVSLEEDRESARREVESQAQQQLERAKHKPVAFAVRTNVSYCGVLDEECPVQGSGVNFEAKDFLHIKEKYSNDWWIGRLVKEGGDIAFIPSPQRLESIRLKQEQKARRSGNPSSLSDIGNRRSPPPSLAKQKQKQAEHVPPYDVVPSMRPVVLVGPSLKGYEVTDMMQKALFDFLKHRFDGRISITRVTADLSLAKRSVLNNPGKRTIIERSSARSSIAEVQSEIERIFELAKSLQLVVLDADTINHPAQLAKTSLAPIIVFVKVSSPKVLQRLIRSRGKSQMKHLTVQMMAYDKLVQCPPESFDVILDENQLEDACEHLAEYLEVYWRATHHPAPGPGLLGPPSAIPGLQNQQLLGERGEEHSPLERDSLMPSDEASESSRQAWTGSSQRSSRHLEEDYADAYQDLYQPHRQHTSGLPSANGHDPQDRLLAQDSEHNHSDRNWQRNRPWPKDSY
T2 sequence (Q00975 whole entry): as the sequence (Q00975 whole entry) above
T2 sequence (P54289 25-946 partner limits assumed): as the sequence (P54289 25-946 partner limits assumed) above
T2 sequence (P54289 947-1103 partner limits assumed): as the sequence (P54289 947-1103 partner limits assumed) above
T2 sequence (P54284 whole entry partner): as the sequence (P54284 whole entry partner) above

IC50 [1]	IC50 [2]	SMILES
745 nM		CC(C)(C1CN(c2ccc(C(F)(F)F)cc2)C(=O)O1)S(=O)(=O)c1cccc(C(F)(F)F)c1 (stereo not drawn)
1510 nM		CC(C)([C@H]1CN(c2ccc(C(F)(F)F)cn2)C(=O)CO1)S(=O)(=O)c1cccc(C(F)(F)F)c1 [drawing 26]
	1520 nM	CC(C)([C@H]1CN(c2ccc(C(F)(F)F)cn2)C(=O)CO1)S(=O)(=O)c1cccc(C(F)(F)F)c1 [Example 6, (6R)-6-(1-methyl-1-{[3-(trifluoromethyl)phenyl]sulfonyl}ethyl)-4-[5-(trifluoromethyl)pyridin-2-yl]morpholin-3-one]
